From the METLIN SMRT retention time set (Domingo-Almenara et al. 2019) come the findings set out here.

The series is described as follows: gradient 5% acetonitrile 3 min, to 50% in 2 min, to 85% in 15 min, held 3 min, 100 µL/min. Particulars: column: Zorbax Extend-C18 2.1 x 50 mm; eluents: water / acetonitrile, 0.1% formic acid. The method in brief:
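Pure standards were analyzed in mixtures of ~100 molecules using HPLC coupled to a quadrupole time-of-flight mass spectrometer, in both positive and negative ionization mode. Separation used a Zorbax Extend-C18 column (2.1 × 50 mm, 1.8 μm) at 100 μL/min, with water and acetonitrile each containing 0.1% formic acid. Dead and dwell volumes were 40 μL and 900 μL, and data were collected over 3 months. Retention time was read from computationally picked adduct peaks, each inspected manually.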
Consider `O=S(=O)(Nc1ccc(Cn2cncn2)cc1)c1ccc(F)c(Cl)c1`, for which the RP-LC retention time was 758 s.

As to `CC(=O)N1CCCc2cc(S(=O)(=O)N3CCC(C(=O)Nc4cccc(C)n4)CC3)ccc21`, the RP-LC retention time is 684 s.

Compound `COc1ccccc1CNC(=O)c1nnc(-c2ccc(S(=O)(=O)N3CCOCC3)cc2)o1` had an RP-LC retention time of 858 s.

In turn, `COc1ccc(CCC(=O)Nc2nc(-c3ccc(F)cc3F)cs2)cc1` showed an RP-LC retention time of 1100 s.

The compound `Cc1cccc(N2CCN(C(=O)C3CCN(c4ncnc5c4oc4ccccc45)CC3)CC2)c1C` registered an RP-LC retention time of 1030 s.

In the case of `COc1ccc(OC)c(-c2cn3ccn(-c4cccc(F)c4)c(=O)c3n2)c1`, the RP-LC retention time came to 835 s.

`CSc1ccccc1NC(=O)C(=O)NCC1CCN(C(=O)COc2ccccc2)CC1` had an RP-LC retention time of 754 s.

As to `COc1ccccc1-c1nc(Cn2nnc(-c3nc(-c4ccc(F)cc4)no3)c2C)c(C)o1`, the RP-LC retention time turned out to be 1160 s.

For `COc1ccc(-c2nc3cc(F)ccc3s2)cc1OC`, the RP-LC retention time stood at 1030 s.

As for `Cc1c(F)cccc1NC(=O)C1CCc2nc(N3CCOCC3)ncc2C1` (stereo unspecified), the RP-LC retention time is 808 s.

Turning to `O=C(Cn1cccc1-c1nc(-c2ccc3c(c2)OCO3)no1)Nc1ccc2c(c1)CCC2`, the RP-LC retention time stood at 1140 s.

The compound `Cc1ccc(N2CCC(NC(=O)Nc3ccc(F)cc3)C2=O)cc1` (stereo unspecified) showed an RP-LC retention time of 846 s.

For the compound `COCCN1C(=O)c2cc(-c3ccc(OC)cc3)nn2CC1(C)C(=O)NCc1ccccc1` (stereo unspecified), the RP-LC retention time was determined as 834 s.

With `Cc1cccc(NS(=O)(=O)c2cc(-c3[nH]ncc3C(=O)N3CCCC3)oc2C)c1C`, the RP-LC retention time is 725 s.

For `COc1ccc(-c2csc(NC(=O)c3sc(C)nc3C)n2)cc1`, the RP-LC retention time was found to be 886 s.

In turn, `COc1ccc(NC(=O)NCCc2ccsc2)cc1` gave an RP-LC retention time of 729 s.

`CCn1c(=O)c(C)nc2cc(-c3noc(-c4cccc(N(C)C)c4)n3)ccc21` showed an RP-LC retention time of 1170 s.

Turning to `CC(=O)N1C[C@@H](C(=O)NCCc2cccs2)[C@H](c2nc(C)no2)C1`, the RP-LC retention time was found to be 652 s.

In the case of `CCCN1CCN(c2ncc3c(n2)CCN(Cc2ccc(CC)cc2)C3)CC1`, the RP-LC retention time worked out at 496 s.

Turning to `COC(=O)c1c(C)[nH]c(C(=O)N2CCCC(C(=O)NCCCN3CCCCCC3)C2)c1C` (stereo unspecified), the RP-LC retention time was determined as 592 s.

As for `CCOc1ccc(-c2csc3c(=O)n(CC(C)C)cnc23)cc1OCC`, the RP-LC retention time is 1100 s.

`Cc1ccc(C)c(-c2nnc(NC(=O)c3ccc4c(c3)OCCO4)o2)c1` showed an RP-LC retention time of 921 s.

With `CCc1cc(=O)n(CC(=O)NCCC2=CCCCC2)c(N)n1`, the RP-LC retention time was determined as 642 s.

As for `COC(=O)c1ccc2c(=O)n(-c3ccc(C)c(C)c3)c(N3CCC(C)CC3)nc2c1`, the RP-LC retention time stood at 1440 s.

Compound `Cc1cc(OCC(=O)NCc2ccc3c(c2)OCO3)nc(N2CCCCC2)n1` gave an RP-LC retention time of 592 s.

`CC1CCCN(C(=O)CN(C)S(=O)(=O)c2ccc3c(c2)CCCC(=O)N3)C1` (stereo unspecified) showed an RP-LC retention time of 718 s.

`COc1ccc(CSc2nnc3c(S(=O)(=O)N4CCCC4)cccn23)cc1F` gave an RP-LC retention time of 825 s.

`COc1ccc(-c2noc(-c3ccc(N4CCN(C5CCCCC5)CC4)nc3)n2)cc1` displayed an RP-LC retention time of 778 s.

In turn, `O=S(=O)(NC1CCCN(c2cc(-c3ccncc3)[nH]n2)C1)c1ccc(Cl)cc1` (stereo unspecified) gave an RP-LC retention time of 579 s.

Consider `CCOc1ccc(NC(=O)COc2cc(C)nc(N3CCN(c4ccccc4)CC3)n2)cc1`, for which the RP-LC retention time was 839 s.

The compound `CCOC(=O)N1CCN(C(=O)C2CCCN(c3ccc(-c4ccco4)nn3)C2)CC1` (stereo unspecified) registered an RP-LC retention time of 606 s.

`O=C(Nc1ccc(-n2cnnn2)cc1)C1CC(=O)N(c2ccccc2)C1` (stereo unspecified): the RP-LC retention time was determined as 662 s.

The compound `CNC(=O)C1CCCN1C(=O)Nc1ccc(C)cc1` (stereo unspecified) came in with an RP-LC retention time of 640 s.

Turning to `COc1ccc(NC(=O)c2sc(-c3cn(C)c4ncccc34)nc2C)cc1`, the RP-LC retention time amounted to 867 s.

As for `O=C(NCc1ccccc1F)c1cc2n(n1)CCCC2`, the RP-LC retention time came out at 794 s.

On to `O=C(Cc1ccsc1)N1CCN(c2ncnc3c2CCC3)CC1`, for which the RP-LC retention time was found to be 594 s.

Consider `CCSc1nnc(-c2nn(C)c3c2CN(C(=O)c2ccc(F)cc2)CC3)n1C`, for which the RP-LC retention time was found to be 750 s.

With `CCOC(=O)c1noc2ncnc(Nc3ccc(OC)cc3)c12`, the RP-LC retention time is 717 s.

Take `COc1cccc(C(=O)N2CCCn3nc(-c4ccc(C)cc4)cc3C2)c1OC`: the RP-LC retention time was 885 s.

The compound `Cc1nnc(-c2ccc3ccn(CC(=O)NC4CCCC4)c3c2)o1` returned an RP-LC retention time of 740 s.

As for `COc1cccc(S(=O)(=O)N2CCC(N3CCN(Cc4ccc(C)cc4)C(=O)C3=O)CC2)c1`, the RP-LC retention time was 861 s.

As to `Cc1nc(N2CCCC2)ncc1-c1ccnc(N2CCN(c3ccccc3)CC2)n1`, the RP-LC retention time amounted to 1100 s.

For `CCc1ccc(NC(=O)Cn2cnc3nc(N4CCC(C(=O)NC5CC5)CC4)sc3c2=O)cc1`, the RP-LC retention time worked out at 708 s.

In turn, `CC(C)(C)NC(=O)N1CCC(c2nc(CCNC(=O)C3CC3)cs2)CC1` registered an RP-LC retention time of 675 s.

In turn, `CC1CCCN(c2nc(C(=O)NC(C)C)cs2)C1` (stereo unspecified) returned an RP-LC retention time of 1020 s.

In turn, `CC1CCCN(C(=O)Cc2nnc3cc(-c4nc(C5CC5)no4)ccn23)C1` (stereo unspecified) came in with an RP-LC retention time of 759 s.

As for `Cc1ccccc1Nc1c(-c2ccc(N(C)C)cc2)nc2ncccn12`, the RP-LC retention time is 725 s.

For the compound `CCc1nnc(-c2cn(CC(=O)Nc3ccc4c(c3)OCCO4)c3ccccc23)o1`, the RP-LC retention time was determined as 817 s.

In the case of `COc1ccc(C)cc1NC(=O)N1CCN(c2ccc(=O)n(-c3ccc(C)cc3)n2)CC1`, the RP-LC retention time is 915 s.

`Cc1ccc(NC(=O)Cn2nc3n(c2=O)CCCCC3)cc1`: the RP-LC retention time is 708 s.

Consider `Cc1cc(OCC(=O)NCc2ccc3c(c2)OCO3)nc(-c2ccc(F)cc2)n1`, for which the RP-LC retention time is 942 s.

With `COc1ccc2c(c1)C1(CCN(S(=O)(=O)c3ccc(Cl)cc3)C1)C(=O)N2` (stereo unspecified), the RP-LC retention time worked out at 894 s.

As to `Cc1c(Cl)cccc1NC(=O)N1C[C@@H](F)C[C@H]1C(=O)N1CCc2ccccc2C1`, the RP-LC retention time turned out to be 864 s.

Take `Cc1nc(-c2ccc(-c3noc(C(NS(=O)(=O)c4ccccc4)C(C)C)n3)cc2)cs1` (stereo unspecified): the RP-LC retention time was found to be 1120 s.

Compound `CC(C)C1c2nccn2CCCN1C(=O)CCn1cccn1` (stereo unspecified) had an RP-LC retention time of 574 s.

Compound `COCCNC(=O)C1CCC(=O)N(c2ccc(OC)cc2)C1c1ccc(F)cc1` (stereo unspecified) came in with an RP-LC retention time of 658 s.

On to `COc1cccc(-c2cc3c(=O)n(CC(O)c4ccc(C(C)C)cc4)ccn3n2)c1` (stereo unspecified), for which the RP-LC retention time stood at 1060 s.

`O=C(CCC1CCCC1)NCCC1CCN(C(=O)Nc2ccc(F)cc2)CC1` displayed an RP-LC retention time of 887 s.

In the case of `COc1ccc(S(=O)(=O)CCc2noc(C(=O)NCCN3CCC(C)CC3)n2)cc1`, the RP-LC retention time was determined as 646 s.

With `COc1ccc(-c2noc(C3CCCN3C(=O)c3ccccc3)n2)cc1` (stereo unspecified), the RP-LC retention time came to 907 s.

Regarding `CC(C)c1c(C2CCN(C(=O)NCc3ccccc3)CC2)noc1N`, the RP-LC retention time stood at 741 s.

On to `O=C(NCc1ccc(Cl)cc1)C(=O)NCC1CCCO1` (stereo unspecified), for which the RP-LC retention time amounted to 762 s.

`CCCc1ccc(S(=O)(=O)N2CC=C(c3cn(C)c4ncccc34)CC2)cc1` showed an RP-LC retention time of 1030 s.

Take `CCc1nc(-c2csc(S(=O)(=O)N3CCCC(C(=O)Nc4ccc(C)cc4C)C3)c2)no1` (stereo unspecified): the RP-LC retention time came to 1070 s.

As to `O=C(c1c(F)cccc1F)N1CCN(c2nc(CN3CCOCC3)cs2)CC1`, the RP-LC retention time was determined as 608 s.

For `COCCNC(=O)C1CCCN(c2nccnc2Sc2ccccc2)C1` (stereo unspecified), the RP-LC retention time came out at 810 s.

`CCN(CC)C(=O)Cn1nc2ncccn2c1=O` showed an RP-LC retention time of 532 s.

For `Cn1cc2c3c(cccc31)CN(C(=O)c1ccccc1Br)CC2`, the RP-LC retention time amounted to 968 s.

For the compound `COCCNC(=O)Cn1c(CO)cnc1SCC(=O)Nc1ccc2c(c1)OCCO2`, the RP-LC retention time came to 554 s.

Compound `O=C(c1ccc2c(c1)OCO2)N1CCC2(CC1)NC(=O)N(Cc1ccccc1Cl)C2=O` showed an RP-LC retention time of 838 s.

In the case of `CC(C)NC(=O)c1csc(N2CCCCC2)n1`, the RP-LC retention time was found to be 919 s.

Compound `CN=C(NC#N)NCCSCc1csc(N=C(N)N)n1` came in with an RP-LC retention time of 616 s.

For the compound `Cc1cccc(Nc2nc(CC(=O)NCCOc3ccc(F)cc3)cs2)n1`, the RP-LC retention time amounted to 651 s.

In the case of `COc1ccc(CCNC(=O)N2CC3CC2C(=O)O3)cc1` (stereo unspecified), the RP-LC retention time stood at 625 s.

Compound `O=C(NCCC1=CCCCC1)c1nnc(-c2ccc(S(=O)(=O)N3CCCCC3)cc2)o1` yielded an RP-LC retention time of 1160 s.

Turning to `O=C(c1cc(F)cc(F)c1)N1CCc2nc(-c3ccccc3)ncc2C1`, the RP-LC retention time stood at 946 s.

Regarding `CCOCCn1c(=O)c2c(nc3n2CCN3c2cc(Cl)ccc2OC)n(C)c1=O`, the RP-LC retention time was determined as 774 s.

`Cc1ccc(NC(=O)C2CCc3nc(N4CCOCC4)ncc3C2)cc1Cl` (stereo unspecified) yielded an RP-LC retention time of 880 s.

Turning to `Cc1ccc(S(=O)(=O)N(C)CC2(C)CCOCC2)cc1F`, the RP-LC retention time is 957 s.

As to `CC(C)CN1C(=O)c2cccn2CC1C(=O)NC1CCCCC1` (stereo unspecified), the RP-LC retention time came out at 797 s.

In turn, `COc1cccc(N2CC(NC(=O)Nc3cccnc3)CC2=O)c1` (stereo unspecified) gave an RP-LC retention time of 544 s.
